Experiments:
Assay type in all cases: biochemical
Mammalian Cathepsin S = Mammalian Cathepsin S (Homo sapiens, UniProt P25774); test: Ki competitive inhibition, mammalian cathepsin S; settings: Table 1, first line of each CAP-P2 block; read-out: Ki competitive inhibition measurements vs Mammalian Cathepsin S
Procedure: Cathepsin S (Mammalian, murine and rat)
Assays were performed in 100 mM sodium phosphate, 100 mM NaCl, pH 6.5 (buffer) in white 384 well plates (Coming Costar). Eight inhibitors were assayed per plate.
Inhibitor dilutions were performed on a 96 well V-bottomed polypropylene plate (Corning Costar). 100 μl of buffer was placed in wells 2-5 and 7-12 of rows A, B, C and D. Sufficient of each inhibitor at 10 mM in DMSO was placed into wells A1-D1 and A6-D6 to give the desired final concentration when the volume in the well was made up to 200 μl with buffer. Column 1 was made up to 200 μl with buffer, mixed by aspirating and dispensing 100 μl in the well, and 100 μl transferred to column 2. The pipette tips were changed and the mixing and transferral repeated to column 5. This process was repeated for columns 6-10.
Substrate dilutions were performed on a 96 deep well polypropylene plate (Beckman Coulter). 280 μl of buffer was placed in wells B-H of columns 1 and 2.70 μl of 10 mM boc-Val-Leu-Lys-AMC was placed in A1 and A2. 2×250 μl of buffer was added to wells A1 and A2, mixed by aspirating and dispensing 280 μl in the well, and 280 μl transferred to row B. The pipette tips were changed and the process repeated down the plate to row H.
Column 1 of the substrate dilution plate was distributed at 10 μl per well into alternate rows beginning at row A. Column 2 was distributed to alternate rows beginning at row B. Row A of the inhibitor dilution plate was distributed at 10 μl per well to alternate rows and columns starting at A1. Row B was distributed to alternate rows and columns starting at A2. Row C was distributed to alternate rows and columns starting at B1 and row D was distributed to alternate rows and columns starting at B2. The assay was started by the addition of 30 μl per well of 20 nM cathepsin S in buffer containing 10 mM 2-mercaptoethanol.
(§1) Data were saved as text files and imported into Excel. The initial rates were determined by linear regression and then fitted to the competitive inhibition equation using SigmaPlot.

Mammalian Cathepsin L = Mammalian Cathepsin L (Homo sapiens, UniProt P07711); test: Ki competitive inhibition, cathepsin L; settings: Table 1, second line of each CAP-P2 block; read-out: Ki competitive inhibition measurements vs Mammalian Cathepsin L
Mammalian Cathepsin L, sequence (P07711 114-333): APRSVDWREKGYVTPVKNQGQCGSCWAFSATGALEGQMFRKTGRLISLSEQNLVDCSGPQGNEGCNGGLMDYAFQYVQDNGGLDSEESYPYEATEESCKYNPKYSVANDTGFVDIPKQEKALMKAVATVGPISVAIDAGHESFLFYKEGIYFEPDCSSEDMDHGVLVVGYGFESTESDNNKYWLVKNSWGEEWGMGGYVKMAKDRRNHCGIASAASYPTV
Procedure: as §1
(§2) Assays were performed essentially as above. For cathepsin L, the buffer used was 100 mM sodium acetate, 1 mM EDTA, pH 5.5 and the substrate was D-Val-Leu-Lys-AMC with a highest concentration of 100 μM. For cathepsin K, the buffer used was 100 mM MES/Tris, 1 mM EDTA, pH 7.0 and the substrate was D-Ala-Leu-Lys-AMC with a highest concentration of 250 μM.

Mammalian Cathepsin K = biological target: T1, Mammalian Cathepsin K (Homo sapiens, UniProt P43235); test: Ki competitive inhibition, cathepsin K; settings: Table 1, third line of each CAP-P2 block; read-out: Ki competitive inhibition measurements vs Mammalian Cathepsin K
T1 sequence (P43235 115-329): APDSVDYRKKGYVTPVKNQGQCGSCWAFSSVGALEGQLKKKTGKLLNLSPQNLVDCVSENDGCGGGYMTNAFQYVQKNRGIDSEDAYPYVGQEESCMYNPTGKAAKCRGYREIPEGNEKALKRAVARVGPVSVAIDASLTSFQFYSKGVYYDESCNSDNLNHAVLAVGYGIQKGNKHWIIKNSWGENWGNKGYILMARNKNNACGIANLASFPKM
Procedure: as §2
Convenient assays for cathepsin K arere carried out using human recombinant enzyme. Standard assay conditions for the determination of kinetic constants used a fluorogenic peptide substrate, typically H-D-Ala-Leu-Lys-AMC, and were determined in either 100 mM Mes/Tris, pH 7.0 containing 1 mM EDTA and 10 mM 2-mercaptoethanol or 100 mM Na acetate, pH 5.5 containing 5 mM EDTA and 20 mM cysteine. The enzyme concentration used was 5 nM. The stock substrate solution was prepared at 10 mM in DMSO. Screens were carried out at a fixed substrate concentration of 60 μM and detailed kinetic studies with doubling dilutions of substrate from 250 μM. The total DMSO concentration in the assay was kept below 3%. All assays were conducted at ambient temperature. Product fluorescence (excitation at 390 nm, emission at 460 nm) was monitored with a Labsystems Fluoroskan Ascent fluorescent plate reader. Product progress curves were generated over 15 minutes following generation of AMC product.
Potential inhibitors are screened using the above assay with variable concentrations of test compound. Reactions were initiated by addition of enzyme to buffered solutions of substrate and inhibitor. Ki values were calculated according to equation 1 [formula] where ν0 is the velocity of the reaction, V is the maximal velocity, S is the concentration of substrate with Michaelis constant of KM, and I is the concentration of inhibitor. Determination of Falcipain 2 Proteolytic Catalytic Activity

Mammalian Cathepsin S, sequence (P25774 115-331): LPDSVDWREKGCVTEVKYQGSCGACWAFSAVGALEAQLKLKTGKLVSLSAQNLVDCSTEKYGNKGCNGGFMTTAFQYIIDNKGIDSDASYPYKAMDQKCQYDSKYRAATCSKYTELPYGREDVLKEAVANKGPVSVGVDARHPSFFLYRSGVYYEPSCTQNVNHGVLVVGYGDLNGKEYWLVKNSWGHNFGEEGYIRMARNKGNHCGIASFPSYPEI

| Ki (Mammalian Cathepsin S) [nM] | Ki (Mammalian Cathepsin L) [nM] | Ki (Mammalian Cathepsin K) [nM] | SMILES |
| --- | --- | --- | --- |
| 230 | 2700 | 410 | CC(C)C[C@H](NC(=O)c1ccc(O)cc1)C(=O)N[C@H]1C(=O)CO[C@H]1C [CAP1-L-Leu/drawing 70] |
| 400 | 19300 | 8900 | CCCC[C@H](NC(=O)c1ccc(O)cc1)C(=O)N[C@@H]1C(=O)CO[C@H]1C [CAP1-L-Nle/drawing 71] |
| 490 | 4400 | 1150 | CCCC[C@H](NC(=O)c1ccc(O)cc1)C(=O)N[C@@H]1COCC1=O [CAP1-L-Nle/drawing 73] |
| 3200 | 220 | > 100000 | C[C@H]1OCC(=O)[C@H]1NC(=O)[C@H](Cc1ccc(O)cc1)NC(=O)Cc1ccccc1 [CAP2-L-Tyr/drawing 69] |
| 760 | 2800 | 5800 | CCCC[C@H](NC(=O)c1ccccc1)C(=O)N[C@H]1COCC1=O [CAP3-L-Nle/drawing 72] |
| 170 | 1400 | > 100000 | C[C@@H]1OCC(=O)[C@@H]1NC(=O)[C@H](Cc1ccc(O)cc1)NC(=O)c1ccccc1 [CAP3-L-Tyr/drawing 70] |
| 1600 | 500 | > 100000 | C[C@H]1OCC(=O)[C@H]1NC(=O)[C@H](Cc1ccc(O)cc1)NC(=O)c1cccs1 [CAP5-L-Tyr/drawing 69] |
| 680 | 670 | 2750 | Cc1cc(C(=O)N[C@@H](CC(C)C)C(=O)N[C@@H]2C(=O)CO[C@H]2C)oc1C [CAP6-L-Leu/drawing 71] |
| 480 | 190 | 330 | Cc1cc(C(=O)N[C@@H](CC(C)C)C(=O)N[C@@H]2COCC2=O)oc1C [CAP6-L-Leu/drawing 73] |
| 2300 | 140 | > 100000 | Cc1cc(C(=O)N[C@@H](Cc2ccc(O)cc2)C(=O)N[C@@H]2COCC2=O)oc1C [CAP6-L-Tyr/drawing 73] |
| 3900 | 1100 | 23 | CC(C)C[C@H](NC(=O)c1ccc(N(C)C)cc1)C(=O)N[C@@H]1COCC1=O [CAP7-L-Leu/drawing 73] |
| 6200 | 49900 | 1300 | CCCC[C@H](NC(=O)c1ccc(N(C)C)cc1)C(=O)N[C@@H]1C(=O)CO[C@H]1C [CAP7-L-Nle/drawing 71] |
| 2700 | 13100 | 40 | C[C@H]1OCC(=O)[C@H]1NC(=O)[C@H](CC(C)(C)C)NC(=O)c1ccc(N(C)C)cc1 [CAP7-L-tBu-Ala/drawing 69] |
| 1000 | > 100000 | > 100000 | CCCC[C@H](NC(=O)c1ccoc1)C(=O)N[C@H]1C(=O)CO[C@H]1C [CAP8-L-Nle/drawing 70] |
| 970 | 38900 | 16000 | CC(C)CC[C@H](NC(=O)c1ccoc1)C(=O)N[C@@H]1C(=O)CO[C@@H]1C [CAP8-L-hLeu/drawing 69] |

The remaining lines, values behind:

| SMILES | Ki (Mammalian Cathepsin S) [nM] | Ki (Mammalian Cathepsin L) [nM] | Ki (Mammalian Cathepsin K) [nM] |
| --- | --- | --- | --- |
| CC(C)C[C@H](NC(=O)c1ccc(O)cc1)C(=O)N[C@@H]1COCC1=O [CAP1-L-Leu/drawing 73] | 270 | 390 | 70 |
| CCCC[C@H](NC(=O)c1ccc(O)cc1)C(=O)N[C@H]1COCC1=O [CAP1-L-Nle/drawing 72] | 560 | 3300 | 1400 |
| C[C@@H]1OCC(=O)[C@@H]1NC(=O)[C@H](Cc1ccc(O)cc1)NC(=O)c1ccc(O)cc1 [CAP1-L-Tyr/drawing 70] | 1000 | 1800 | > 100000 |
| O=C(NC(Cc1ccc(O)cc1)C(=O)NC1COCC1=O)c1ccc(O)cc1 [CAP1-L-Tyr/drawing 72] | 860 | 330 | 27100 |
| CC(C)CC[C@H](NC(=O)c1ccc(O)cc1)C(=O)N[C@H]1C(=O)CO[C@H]1C [CAP1-L-hLeu/drawing 70] | 300 | 29800 | 24100 |
| C[C@H]1OCC(=O)[C@H]1NC(=O)[C@H](CC(C)(C)C)NC(=O)c1ccc(O)cc1 [CAP1-L-tBu-Ala/drawing 69] | 250 | 3900 | 390 |
| C[C@H]1OCC(=O)[C@H]1NC(=O)[C@H](Cc1ccc(O)cc1)NC(=O)c1ccccc1 [CAP3-L-Tyr/drawing 69] | 1100 | 170 | > 100000 |
| O=C(N[C@@H](Cc1ccc(O)cc1)C(=O)N[C@H]1COCC1=O)c1ccccc1 [CAP3-L-Tyr/drawing 72] | 1600 | 250 | > 100000 |
| CC(C)C[C@H](NC(=O)c1cccs1)C(=O)N[C@@H]1C(=O)CO[C@@H]1C [CAP5-L-Leu/drawing 69] | 480 | 1480 | 290 |
| C[C@H]1OCC(=O)[C@H]1NC(=O)[C@H](CC(C)(C)C)NC(=O)c1cccs1 [CAP5-L-tBu-Ala/drawing 69] | 470 | 24600 | 650 |
| Cc1cc(C(=O)N[C@@H](CC(C)C)C(=O)N[C@H]2C(=O)CO[C@H]2C)oc1C [CAP6-L-Leu/drawing 70] | 610 | 1100 | 750 |
| Cc1cc(C(=O)N[C@@H](Cc2ccc(O)cc2)C(=O)N[C@@H]2C(=O)CO[C@@H]2C)oc1C [CAP6-L-Tyr/drawing 69] | 2000 | 55 | > 100000 |
| Cc1cc(C(=O)N[C@@H](Cc2ccc(O)cc2)C(=O)N[C@H]2C(=O)CO[C@H]2C)oc1C [CAP6-L-Tyr/drawing 70] | 240 | 670 | > 100000 |
| CC(C)C[C@H](NC(=O)c1ccc(N(C)C)cc1)C(=O)N[C@H]1C(=O)CO[C@H]1C [CAP7-L-Leu/drawing 70] | 4200 | 6800 | 170 |
| CC(C)C[C@H](NC(=O)c1ccc(N(C)C)cc1)C(=O)N[C@H]1COCC1=O [CAP7-L-Leu/drawing 72] | 3100 | 690 | 18 |
| CCCCC(NC(=O)c1ccc(N(C)C)cc1)C(=O)NC1C(=O)COC1C [CAP7-L-Nle/drawing 70] | 6800 | 46700 | 3100 |
| CCCC[C@H](NC(=O)c1ccoc1)C(=O)N[C@@H]1C(=O)CO[C@@H]1C [CAP8-L-Nle/drawing 69] | 1500 | 54400 | 13200 |
| CC(C)CC[C@H](NC(=O)c1ccoc1)C(=O)N[C@H]1C(=O)CO[C@H]1C [CAP8-L-hLeu/drawing 70] | 450 | > 100000 | > 100000 |
| CC(C)CC[C@H](NC(=O)c1ccoc1)C(=O)N[C@@H]1C(=O)CO[C@H]1C [CAP8-L-hLeu/drawing 71] | 370 | > 100000 | > 100000 |
| CC(C)CC[C@H](NC(=O)c1ccoc1)C(=O)N[C@@H]1COCC1=O [CAP8-L-hLeu/drawing 73] | 440 | 61200 | 8700 |
| C[C@@H]1OCC(=O)[C@@H]1NC(=O)[C@H](CC(C)(C)C)NC(=O)c1ccoc1 [CAP8-L-tBu-Ala/drawing 70] | 200 | > 100000 | 19900 |

Reference: patent US20050020588A1, “Cysteine protease inhibitors” (priority 1999, published 2005)
